Experiments:
human MLKL (full length) = human MLKL (full length) (Homo sapiens (Human), UniProt Q8NB16); test: KINOMEscan binding assay, human MLKL (full length); conditions: equilibrium dissociation constant
Method in brief: (§1)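 Kd values come from dose-response fits to the Hill equation (Hill slope −1, Levenberg–Marquardt least squares). Compound competed with bead-bound ligand for tagged kinase, and remaining kinase was measured by qPCR after elution. Dilution series: 11 points, 3-fold, 1% DMSO final, top 30,000 nM in most runs.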

human RIPK1 = human RIPK1 (Homo sapiens (Human), UniProt Q13546); test: KINOMEscan binding assay, human RIPK1; conditions: equilibrium dissociation constant
Method in brief: as §1

Chain of human RIPK1 (Q13546 whole entry): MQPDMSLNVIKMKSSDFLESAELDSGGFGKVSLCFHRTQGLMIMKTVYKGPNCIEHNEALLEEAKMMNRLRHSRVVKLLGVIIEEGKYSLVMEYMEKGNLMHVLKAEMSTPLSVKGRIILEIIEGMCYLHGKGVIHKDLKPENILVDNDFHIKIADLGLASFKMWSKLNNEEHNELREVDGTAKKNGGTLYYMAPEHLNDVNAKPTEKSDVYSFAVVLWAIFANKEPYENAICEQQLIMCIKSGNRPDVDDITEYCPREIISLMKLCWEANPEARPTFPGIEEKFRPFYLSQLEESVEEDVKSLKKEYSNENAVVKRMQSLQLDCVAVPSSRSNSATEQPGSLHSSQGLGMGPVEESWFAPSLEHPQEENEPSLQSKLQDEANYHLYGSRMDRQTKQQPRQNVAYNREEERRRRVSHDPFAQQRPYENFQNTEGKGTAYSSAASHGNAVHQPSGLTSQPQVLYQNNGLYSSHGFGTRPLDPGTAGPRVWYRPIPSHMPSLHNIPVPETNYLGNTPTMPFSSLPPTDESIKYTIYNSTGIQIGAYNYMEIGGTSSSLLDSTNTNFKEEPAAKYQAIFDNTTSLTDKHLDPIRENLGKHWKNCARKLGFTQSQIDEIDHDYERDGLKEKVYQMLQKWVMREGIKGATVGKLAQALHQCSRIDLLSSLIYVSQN
Chain of human MLKL (full length) (Q8NB16 whole entry): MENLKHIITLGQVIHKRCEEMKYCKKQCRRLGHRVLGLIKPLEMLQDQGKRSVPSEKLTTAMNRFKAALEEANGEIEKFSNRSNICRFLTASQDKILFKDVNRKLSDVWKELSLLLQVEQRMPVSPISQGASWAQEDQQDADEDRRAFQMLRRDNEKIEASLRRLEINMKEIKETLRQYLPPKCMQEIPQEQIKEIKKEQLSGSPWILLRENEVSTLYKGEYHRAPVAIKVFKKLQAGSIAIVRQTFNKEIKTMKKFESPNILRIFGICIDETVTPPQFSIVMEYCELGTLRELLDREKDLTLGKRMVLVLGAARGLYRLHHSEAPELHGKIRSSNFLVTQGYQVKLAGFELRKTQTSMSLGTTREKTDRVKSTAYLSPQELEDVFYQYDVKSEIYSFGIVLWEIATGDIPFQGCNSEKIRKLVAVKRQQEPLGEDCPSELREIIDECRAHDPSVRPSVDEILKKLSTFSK

| Compound | Kd (human MLKL (full length)) [nM] | Kd (human RIPK1) [nM] |
| --- | --- | --- |
| C[C@H](Oc1cc(-c2nn(C)c3c(-c4cnn(C5CCN(C)C(C)(C)C5)c4)cnc(N)c23)ccc1NS(=O)(=O)C(F)F)c1ccc(F)cc1 (single isomer, unassigned) [Compound 113] | < 1 | > 10000 |
| C[C@H](Oc1cc(-c2nn(C)c3c(-c4cnn(C5CCN(C)C(C)(C)C5)c4)cnc(N)c23)ccc1NS(=O)(=O)C(F)F)c1ccc(F)cc1 (single isomer, unassigned) [Compound 154, N-(4-(4-amino-1-methyl-7-(1-((R*)-1,2,2-trimethylpiperidin-4-yl)-1H-pyrazol-4-yl)-1H-pyrazolo[4,3-c]pyridin-3-yl)-2-((S)-1-(4-fluorophenyl)ethoxy)phenyl)-1,1-difluoromethanesulfonamide] | < 1 | > 10000 |
| C[C@H](Oc1cc(-c2nn(C)c3c(-c4cnn(C5CCN(C)C6(CC6)C5)c4)cnc(N)c23)ccc1NS(=O)(=O)C(F)F)c1ccc(F)cc1 (single isomer, unassigned) [Compound 170, N-(4-(4-amino-1-methyl-7-(1-((S*)-4-methyl-4-azaspiro[2.5]octan-7-yl)-1H-pyrazol-4-yl)-1H-pyrazolo[4,3-c]pyridin-3-yl)-2-((S)-1-(4-fluorophenyl)ethoxy)phenyl)-1,1-difluoromethanesulfonamide] | 1 to 100 | > 10000 |
| C[C@H](Oc1cc(-c2nn(C)c3c(C#CC4CCNCC4)cnc(N)c23)ccc1NS(=O)(=O)C(F)F)c1ccc(F)cc1 [Compound 79, (S)—N-(4-(4-amino-1-methyl-7-(piperidin-4-ylethynyl)-1H-pyrazolo[4,3-c]pyridin-3-yl)-2-(1-(4-fluorophenyl)ethoxy)phenyl)-1,1-difluoromethanesulfonamide] | < 1 | > 10000 |
| C[C@H](Oc1cc(-c2nn(C)c3c(C#CC4CCN(C)CC4)cnc(N)c23)ccc1NS(=O)(=O)C(F)F)c1ccc(F)cc1 [Compound 80, (S)—N-(4-(4-amino-1-methyl-7-((1-methylpiperidin-4-yl)ethynyl)-1H-pyrazolo[4,3-c]pyridin-3-yl)-2-(1-(4-fluorophenyl)ethoxy)phenyl)-1,1-difluoromethanesulfonamide] | < 1 | > 10000 |
| CC(C)N(C)C(=O)C(C)n1cc(-c2cnc(N)c3c(-c4ccc(NS(=O)(=O)C(F)F)c(O[C@@H](C)c5ccc(F)cc5)c4)nn(C)c23)cn1 (stereo partly drawn) [Compound 81, 2-(4-(4-amino-3-(4-((difluoromethyl)sulfonamido)-3-((S)-1-(4-fluorophenyl)ethoxy)phenyl)-1-methyl-1H-pyrazolo[4,3-c]pyridin-7-yl)-1H-pyrazol-1-yl)-N-isopropyl-N-methylpropanamide] | < 1 | > 10000 |
| C[C@H](Oc1cc(-c2nn(C)c3c(-c4cnn(C5CC6(C5)CN(C)C6)c4)cnc(N)c23)ccc1NS(=O)(=O)C(F)F)c1ccc(F)cc1 [Compound 99, (S)-N-(4-(4-amino-1-methyl-7-(1-(2-methyl-2-azaspiro[3.3]heptan-6-yl)-1H-pyrazol-4-yl)-1H-pyrazolo[4,3-c]pyridin-3-yl)-2-(1-(4-fluorophenyl)ethoxy)phenyl)-1,1-difluoromethanesulfonamide] | < 1 | > 10000 |
| [2H]C([2H])([2H])N1CCC(n2cc(-c3cnc(N)c4c(-c5ccc(NS(=O)(=O)C(F)F)c(O[C@@H](C)c6ccc(F)cc6)c5)nn(C)c34)cn2)CC1 [Compound 103] | < 1 | > 10000 |
| C[C@H](Oc1cc(-c2nn(C)c3c(-c4cnn(C5CCC(C)(C)N(C)C5)c4)cnc(N)c23)ccc1NS(=O)(=O)C(F)F)c1ccc(F)cc1 (some centres unmarked) [Compound 104, N-(4-{4-amino-1-methyl-7-[1-(1,6,6-trimethylpiperidin-3-yl)-1H-pyrazol-4-yl]-1H-pyrazolo[4,3-c]pyridin-3-yl}-2-[(1 S)-1-(4-fluorophenyl)ethoxy]phenyl)-1,1-difluoromethanesulfonamide] | < 1 | > 10000 |
| CC(=O)N1CCC(n2cc(-c3cnc(N)c4c(-c5ccc(NS(=O)(=O)C(F)F)c(O[C@@H](C)c6ccc(F)cc6)c5)nn(C)c34)cn2)CC1 [Compound 109, (S)—N-(4-(7-(1-(1-acetylpiperidin-4-yl)-1H-pyrazol-4-yl)-4-amino-1-methyl-1H-pyrazolo[4,3-c]pyridin-3-yl)-2-(1-(4-fluorophenyl)ethoxy)phenyl)-1,1-difluoromethanesulfonamide] | < 1 | > 10000 |
| C[C@H](Oc1cc(-c2nn(C)c3c(-c4cnn(C5CCOCC5)c4)cnc(N)c23)ccc1NS(=O)(=O)C(F)F)c1cccc(Cl)c1 [Compound 122, (S)-N-(4-(4-amino-1-methyl-7-(1-(tetrahydro-2H-pyran-4-yl)-1H-pyrazol-4-yl)-1H-pyrazolo[4,3-c]pyridin-3-yl)-2-(1-(3-chlorophenyl)ethoxy)phenyl)-1,1-difluoromethanesulfonamide] | < 1 | > 10000 |
| Cn1nc(-c2ccc(NS(=O)(=O)C(F)F)c(OCc3ccc(Cl)c(F)c3)c2)c2c(N)ncc(-c3cnn(C4CCOCC4)c3)c21 [Compound 132, N-(4-(4-amino-1-methyl-7-(1-(tetrahydro-2H-pyran-4-yl)-1H-pyrazol-4-yl)-1H-pyrazolo[4,3-c]pyridin-3-yl)-2-((4-chloro-3-fluorobenzyl)oxy)phenyl)-1,1-difluoromethanesulfonamide] | < 1 | > 10000 |
| COCC(Oc1cc(-c2nn(C)c3c(-c4cnn(C5CCN(C)CC5)c4)cnc(N)c23)ccc1NS(=O)(=O)C(F)F)c1ccc(F)cc1 (centres unmarked) [Compound 139, N-(4-(4-amino-1-methyl-7-(1-(1-methylpiperidin-4-yl)-1H-pyrazol-4-yl)-1H-pyrazolo[4,3-c]pyridin-3-yl)-2-(1-(4-fluorophenyl)-2-methoxyethoxy)phenyl)-1,1-difluoromethanesulfonamide] | 1 to 100 | > 10000 |

The remaining lines, values ahead:

| Kd (human MLKL (full length)) [nM] | Kd (human RIPK1) [nM] | Compound |
| --- | --- | --- |
| < 1 | > 10000 | COCCn1cc(-c2cnc(N)c3c(-c4ccc(NS(=O)(=O)C(F)F)c(O[C@@H](C)c5ccc(F)cc5)c4)nn(C)c23)cn1 [Compound 29, (S)-N-(4-(4-amino-7-(1-(2-methoxyethyl)-1H-pyrazol-4-yl)-1-methyl-1H-pyrazolo[4,3-c]pyridin-3-yl)-2-(1-(4-fluorophenyl)ethoxy)phenyl)-1,1-difluoromethanesulfonamide] |
| 1 to 100 | > 10000 | C[C@H](Oc1cc(-c2nn(C)c3c(-c4cnn(C5CCCC5)c4)cnc(N)c23)ccc1NS(=O)(=O)C(F)F)c1ccc(F)cc1 [Compound 30, (S)-N-(4-(4-amino-7-(1-cyclopentyl-1H-pyrazol-4-yl)-1-methyl-1H-pyrazolo[4,3-c]pyridin-3-yl)-2-(1-(4-fluorophenyl)ethoxy)phenyl)-1,1-difluoromethanesulfonamide] |
| 1 to 100 | > 10000 | C[C@H](Oc1cc(-c2nn(C)c3c(-c4cnn(C5CCN(C)CC5)c4)cnc(N)c23)ccc1NS(=O)(=O)C(F)F)c1ccc(F)cc1 [Compound 46, (S)-N-(4-(4-amino-1-methyl-7-(1-(1-methylpiperidin-4-yl)-1H-pyrazol-4-yl)-1H-pyrazolo[4,3-c]pyridin-3-yl)-2-(1-(4-fluorophenyl)ethoxy)phenyl)-1,1-difluoromethanesulfonamide] |
| < 1 | > 10000 | C[C@H](Oc1cc(-c2nn(C)c3c(-c4cnn(C(C)(C)CO)c4)cnc(N)c23)ccc1NS(=O)(=O)C(F)F)c1ccc(F)cc1 [Compound 97, (S)-N-(4-(4-amino-7-(1-(1-hydroxy-2-methylpropan-2-yl)-1H-pyrazol-4-yl)-1-methyl-1H-pyrazolo[4,3-c]pyridin-3-yl)-2-(1-(4-fluorophenyl)ethoxy)phenyl)-1,1-difluoromethanesulfonamide] |
| < 1 | > 10000 | C[C@H](Oc1cc(-c2nn(C)c3c(-c4cnn(C5(CC#N)COC5)c4)cnc(N)c23)ccc1NS(=O)(=O)C(F)F)c1ccc(F)cc1 [Compound 98, (S)-N-(4-(4-amino-7-(1-(3-(cyanomethyl)oxetan-3-yl)-1H-pyrazol-4-yl)-1-methyl-1H-pyrazolo[4,3-c]pyridin-3-yl)-2-(1-(4-fluorophenyl)ethoxy)phenyl)-1,1-difluoromethanesulfonamide] |
| 1 to 100 | > 10000 | C[C@H](Oc1cc(-c2nn(C)c3c(-c4cnn(CC(F)(F)F)c4)cnc(N)c23)ccc1NS(=O)(=O)C(F)F)c1ccc(F)cc1 [Compound 116, (S)-N-(4-(4-amino-1-methyl-7-(1-(2,2,2-trifluoroethyl)-1H-pyrazol-4-yl)-1H-pyrazolo[4,3-c]pyridin-3-yl)-2-(1-(4-fluorophenyl)ethoxy)phenyl)-1,1-difluoromethanesulfonamide] |
| 1 to 100 | > 10000 | C[C@H](Oc1cc(-c2nn(C)c3c(-c4cnn(C5CCC(F)(F)C5)c4)cnc(N)c23)ccc1NS(=O)(=O)C(F)F)c1ccc(F)cc1 (stereo partly drawn) [Compound 120, N-(4-{4-amino-7-[1-(3,3-difluorocyclopentyl)-1H-pyrazol-4-yl]-1-methyl-1H-pyrazolo[4,3-c]pyridin-3-yl}-2-[(1S)-1-(4-fluorophenyl)ethoxy]phenyl)-1,1-difluoromethanesulfonamide] |
| < 1 | > 10000 | C[C@@H](Oc1cc(-c2nn(C)c3c(-c4cnn(C5CCOCC5)c4)cnc(N)c23)ccc1NS(=O)(=O)C(F)F)c1ccc(F)cc1 [Compound 121, (R)-N-(4-(4-amino-1-methyl-7-(1-(tetrahydro-2H-pyran-4-yl)-1H-pyrazol-4-yl)-1H-pyrazolo[4,3-c]pyridin-3-yl)-2-(1-(4-fluorophenyl)ethoxy)phenyl)-1,1-difluoromethanesulfonamide] |
| 1 to 100 | > 10000 | C[C@H](Oc1cc(-c2nn(C)c3c(-c4cnn(CCC(F)(F)F)c4)cnc(N)c23)ccc1NS(=O)(=O)C(F)F)c1ccc(F)cc1 [Compound 131, (S)-N-(4-(4-amino-1-methyl-7-(1-(3,3,3-trifluoropropyl)-1H-pyrazol-4-yl)-1H-pyrazolo[4,3-c]pyridin-3-yl)-2-(1-(4-fluorophenyl)ethoxy)phenyl)-1,1-difluoromethanesulfonamide] |

From US20250059188A1, “ARYLSULPHONAMIDE COMPOUNDS” (Anaxis Pharma Pty Ltd, priority 2021, published 2025)
